Results taken from ChEMBL document CHEMBL3784934, “N-Alkylpyrido[1',2':1,5]pyrazolo-[4,3-d]pyrimidin-4-amines: A new series of negative allosteric modulators of mGlu1/5 with CNS exposure in rodents” (Bioorg Med Chem Lett, 2016).
Calls of active or inactive are those of the source. The rule behind the calls is not given here.

Tests used:
[1] = biological target: Metabotropic glutamate receptor 1 (Rattus norvegicus, UniProt P23385); assay: Negative allosteric modulation of rat mGluR1 expressed in HEK293 cells assessed as inhibition of glutamate induced calcium mobilization by calcium mobilization assay; type: functional, cell-based
[2] = biological target: Metabotropic glutamate receptor 1 (Rattus norvegicus) (UniProt P23385); assay: Negative allosteric modulation of rat mGluR1 expressed in HEK293 cells assessed as calcium mobilization at 30 uM by calcium mobilization assay relative to 100 uM glutamate; type: functional, cell-based
[3] = biological target: Metabotropic glutamate receptor 5 (Rattus norvegicus, UniProt P31424); assay: Negative allosteric modulation of rat mGluR5 expressed in HEK293 cells assessed as inhibition of glutamate induced calcium mobilization by calcium mobilization assay; type: functional, cell-based; conditions: read-out: IC50
[4] = biological target: Metabotropic glutamate receptor 5 (Rattus norvegicus) (UniProt P31424); assay: Negative allosteric modulation of rat mGluR5 expressed in HEK293 cells assessed as calcium mobilization at 30 uM by calcium mobilization assay relative to 100 uM glutamate; type: functional, cell-based
[5] = biological target: Adenosine receptor A1 (Homo sapiens) (UniProt P30542); assay: Inhibition of recombinant human Adenosine A1 receptor expressed in CHO cells at 10 uM by radioligand binding assay; type: cell-based
[6] = biological target: Adenosine receptor A2a (Homo sapiens) (UniProt P29274); assay: Inhibition of recombinant human Adenosine A2A receptor expressed in HEK293 cells at 10 uM by radioligand binding assay; type: cell-based
[7] = biological target: 5-hydroxytryptamine receptor 2B (Homo sapiens) (UniProt P41595); assay: Inhibition of recombinant human 5-HT2B receptor expressed in CHOK1 cells at 10 uM by radioligand binding assay; type: cell-based; conditions: CHO-K1
[8] = biological target: Sodium-dependent noradrenaline transporter (Homo sapiens) (UniProt P23975); assay: Inhibition of recombinant human norepinephrine transporter expressed in MDCK cells at 10 uM by radioligand binding assay; type: cell-based
Rattus norvegicus = species on record: Rattus norvegicus; assay: Inhibition of rat brain sodium channel, site 2 at 10 uM by radioligand binding assay
[9] = biological target: Casein kinase I isoform alpha (Homo sapiens) (UniProt P48729); assay: Inhibition of human CK1alpha1 at 10 uM
[10] = biological target: Casein kinase I isoform delta (Homo sapiens) (UniProt P48730); assay: Inhibition of human CK1delta at 10 uM
Sequence of Casein kinase I isoform delta (Homo sapiens) (P48730 whole entry, looked up, canonical isoform): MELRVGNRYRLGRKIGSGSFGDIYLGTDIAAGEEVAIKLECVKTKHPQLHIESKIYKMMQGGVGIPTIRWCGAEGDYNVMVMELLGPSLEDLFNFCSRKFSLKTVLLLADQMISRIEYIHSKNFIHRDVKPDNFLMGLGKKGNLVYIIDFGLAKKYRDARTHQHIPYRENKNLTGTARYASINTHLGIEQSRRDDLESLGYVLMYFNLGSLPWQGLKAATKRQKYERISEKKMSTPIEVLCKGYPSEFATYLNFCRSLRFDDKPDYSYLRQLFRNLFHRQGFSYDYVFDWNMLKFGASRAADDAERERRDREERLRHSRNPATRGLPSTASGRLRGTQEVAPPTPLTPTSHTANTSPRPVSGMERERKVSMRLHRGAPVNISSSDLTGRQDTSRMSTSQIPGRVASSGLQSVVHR

[11] = biological target: Casein kinase I isoform epsilon (Homo sapiens) (UniProt P49674); assay: Inhibition of human CK1epsilon at 10 uM
[12] = biological target: Casein kinase I isoform gamma-2 (Homo sapiens) (UniProt P78368); assay: Inhibition of human CK1gamma2 at 10 uM
Sequence of Casein kinase I isoform gamma-2 (Homo sapiens) (P78368 whole entry, looked up, canonical isoform): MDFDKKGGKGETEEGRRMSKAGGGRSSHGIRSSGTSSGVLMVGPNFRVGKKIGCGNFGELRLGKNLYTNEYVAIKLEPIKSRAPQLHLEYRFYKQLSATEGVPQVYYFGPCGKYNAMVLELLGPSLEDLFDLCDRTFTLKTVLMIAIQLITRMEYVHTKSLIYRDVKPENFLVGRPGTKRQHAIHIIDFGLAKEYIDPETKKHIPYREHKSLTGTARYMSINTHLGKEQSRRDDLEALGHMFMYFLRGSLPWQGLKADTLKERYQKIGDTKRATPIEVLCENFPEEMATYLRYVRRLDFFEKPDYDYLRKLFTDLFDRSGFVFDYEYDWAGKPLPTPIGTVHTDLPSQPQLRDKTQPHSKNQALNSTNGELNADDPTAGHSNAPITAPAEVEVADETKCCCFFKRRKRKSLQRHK

[13] = biological target: Serine/threonine-protein kinase 17A (Homo sapiens) (UniProt Q9UEE5); assay: Inhibition of human DRAK1 at 10 uM
[14] = biological target: SRSF protein kinase 1 (Homo sapiens) (UniProt Q96SB4); assay: Inhibition of human SRPK1 at 10 uM
Sequence of SRSF protein kinase 1 (Homo sapiens) (Q96SB4 whole entry): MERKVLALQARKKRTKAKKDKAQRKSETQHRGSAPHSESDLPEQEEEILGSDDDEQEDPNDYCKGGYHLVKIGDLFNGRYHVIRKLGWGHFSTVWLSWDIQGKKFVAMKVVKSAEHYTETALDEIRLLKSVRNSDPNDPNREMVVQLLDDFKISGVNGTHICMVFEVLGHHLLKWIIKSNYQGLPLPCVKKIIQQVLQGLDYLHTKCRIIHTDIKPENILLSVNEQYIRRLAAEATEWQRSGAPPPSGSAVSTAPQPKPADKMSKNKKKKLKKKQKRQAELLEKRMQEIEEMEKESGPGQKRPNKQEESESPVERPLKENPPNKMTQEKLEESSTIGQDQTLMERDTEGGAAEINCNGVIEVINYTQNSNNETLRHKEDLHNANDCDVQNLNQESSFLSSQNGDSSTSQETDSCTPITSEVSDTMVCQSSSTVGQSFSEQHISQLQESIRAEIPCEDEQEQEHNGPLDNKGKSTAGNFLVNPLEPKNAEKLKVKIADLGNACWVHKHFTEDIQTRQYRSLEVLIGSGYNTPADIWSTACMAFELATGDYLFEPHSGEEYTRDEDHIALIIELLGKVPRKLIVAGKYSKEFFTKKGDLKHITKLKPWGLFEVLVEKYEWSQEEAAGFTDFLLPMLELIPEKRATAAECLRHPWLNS

[15] = biological target: SRSF protein kinase 2 (Homo sapiens) (UniProt P78362); assay: Inhibition of human SRPK2 at 10 uM
Sequence of SRSF protein kinase 2 (Homo sapiens) (P78362 whole entry, looked up): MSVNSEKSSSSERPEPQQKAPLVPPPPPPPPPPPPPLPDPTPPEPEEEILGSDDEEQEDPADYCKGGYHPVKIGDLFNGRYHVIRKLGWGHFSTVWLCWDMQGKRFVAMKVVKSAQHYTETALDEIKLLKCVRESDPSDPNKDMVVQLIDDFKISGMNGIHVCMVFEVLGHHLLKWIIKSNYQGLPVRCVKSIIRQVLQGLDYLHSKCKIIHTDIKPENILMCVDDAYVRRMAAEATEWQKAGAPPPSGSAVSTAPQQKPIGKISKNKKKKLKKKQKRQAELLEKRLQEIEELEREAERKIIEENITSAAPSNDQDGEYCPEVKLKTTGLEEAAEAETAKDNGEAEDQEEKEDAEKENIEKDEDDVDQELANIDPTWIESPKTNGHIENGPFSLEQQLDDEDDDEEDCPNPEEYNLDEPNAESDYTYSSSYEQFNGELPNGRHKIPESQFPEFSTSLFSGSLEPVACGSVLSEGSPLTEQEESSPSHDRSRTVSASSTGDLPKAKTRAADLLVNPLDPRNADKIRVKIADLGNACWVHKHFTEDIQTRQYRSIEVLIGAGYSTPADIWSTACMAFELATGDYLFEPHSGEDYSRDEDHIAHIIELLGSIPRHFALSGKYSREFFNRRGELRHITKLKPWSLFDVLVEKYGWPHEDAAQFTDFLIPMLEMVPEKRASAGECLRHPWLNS

[16] = biological target: TRAF2 and NCK-interacting protein kinase (Homo sapiens) (UniProt Q9UKE5); assay: Inhibition of human TNIK at 10 uM
Sequence of TRAF2 and NCK-interacting protein kinase (Homo sapiens) (Q9UKE5 whole entry, looked up): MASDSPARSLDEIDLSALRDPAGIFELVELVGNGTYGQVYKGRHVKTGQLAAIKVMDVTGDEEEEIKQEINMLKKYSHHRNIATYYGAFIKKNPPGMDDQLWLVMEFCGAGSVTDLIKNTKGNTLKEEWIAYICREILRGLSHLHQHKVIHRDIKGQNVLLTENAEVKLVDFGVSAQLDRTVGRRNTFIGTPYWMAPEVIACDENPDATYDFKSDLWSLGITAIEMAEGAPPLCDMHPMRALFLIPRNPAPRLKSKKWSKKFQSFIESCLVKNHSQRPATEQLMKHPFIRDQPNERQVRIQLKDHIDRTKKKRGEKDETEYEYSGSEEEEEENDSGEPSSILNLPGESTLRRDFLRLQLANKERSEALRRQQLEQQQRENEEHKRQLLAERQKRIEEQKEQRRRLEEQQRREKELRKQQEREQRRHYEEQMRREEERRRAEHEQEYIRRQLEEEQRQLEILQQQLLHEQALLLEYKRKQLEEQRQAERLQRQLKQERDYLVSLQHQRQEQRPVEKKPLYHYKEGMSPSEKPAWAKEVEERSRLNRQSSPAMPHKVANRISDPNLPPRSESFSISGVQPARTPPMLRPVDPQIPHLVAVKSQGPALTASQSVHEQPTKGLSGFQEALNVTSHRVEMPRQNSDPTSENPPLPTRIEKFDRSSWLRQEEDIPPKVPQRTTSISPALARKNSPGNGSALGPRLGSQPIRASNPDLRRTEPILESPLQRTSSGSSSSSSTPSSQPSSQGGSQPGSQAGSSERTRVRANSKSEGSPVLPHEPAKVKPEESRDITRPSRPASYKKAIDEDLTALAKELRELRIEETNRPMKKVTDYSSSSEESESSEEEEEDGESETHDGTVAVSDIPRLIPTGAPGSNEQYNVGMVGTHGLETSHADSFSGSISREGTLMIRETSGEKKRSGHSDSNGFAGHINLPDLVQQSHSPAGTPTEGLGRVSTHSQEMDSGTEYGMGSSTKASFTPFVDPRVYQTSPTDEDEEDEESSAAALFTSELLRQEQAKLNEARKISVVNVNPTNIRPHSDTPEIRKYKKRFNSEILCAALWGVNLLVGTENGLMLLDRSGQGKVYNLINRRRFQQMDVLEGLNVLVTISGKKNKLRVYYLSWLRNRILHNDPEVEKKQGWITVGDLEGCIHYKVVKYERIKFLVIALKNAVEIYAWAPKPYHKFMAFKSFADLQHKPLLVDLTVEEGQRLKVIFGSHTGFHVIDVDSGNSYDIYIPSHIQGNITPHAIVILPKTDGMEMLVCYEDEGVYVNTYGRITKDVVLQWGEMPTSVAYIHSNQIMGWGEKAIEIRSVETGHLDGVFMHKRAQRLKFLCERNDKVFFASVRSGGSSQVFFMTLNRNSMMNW

[17] = Fraction unbound in mouse plasma by equilibrium dialysis assay; type: ADME, cell-free
Plasma = assay: Fraction unbound in rat plasma by equilibrium dialysis assay; type: ADME, cell-free
[18] = Fraction unbound in rat brain by equilibrium dialysis assay; type: ADME, tissue-based
[19] = Fraction unbound in mouse brain by equilibrium dialysis assay; type: ADME, tissue-based
Cytochrome P450 3A4 = Cytochrome P450 3A4 (Homo sapiens, UniProt P08684); assay: Inhibition of CYP3A4 in human liver microsomes in presence of NADPH; type: ADME
Sequence of Cytochrome P450 3A4 (P08684 whole entry): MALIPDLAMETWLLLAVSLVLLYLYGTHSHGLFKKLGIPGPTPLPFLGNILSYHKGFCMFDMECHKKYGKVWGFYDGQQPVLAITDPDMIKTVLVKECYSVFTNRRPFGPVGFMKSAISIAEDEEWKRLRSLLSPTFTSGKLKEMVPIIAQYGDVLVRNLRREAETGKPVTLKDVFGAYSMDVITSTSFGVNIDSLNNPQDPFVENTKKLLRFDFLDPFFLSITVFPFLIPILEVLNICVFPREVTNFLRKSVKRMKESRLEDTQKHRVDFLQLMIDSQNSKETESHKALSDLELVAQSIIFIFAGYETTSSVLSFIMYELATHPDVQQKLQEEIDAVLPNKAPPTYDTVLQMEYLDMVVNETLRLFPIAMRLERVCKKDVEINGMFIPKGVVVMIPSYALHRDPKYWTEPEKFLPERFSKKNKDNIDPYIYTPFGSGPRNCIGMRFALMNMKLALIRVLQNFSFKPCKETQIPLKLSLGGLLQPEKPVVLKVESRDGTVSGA

Cytochrome P450 2D6 = Cytochrome P450 2D6 (Homo sapiens, UniProt P10635); assay: Inhibition of CYP2D6 in human liver microsomes in presence of NADPH; type: ADME
Cytochrome P450 2C9 = Cytochrome P450 2C9 (Homo sapiens, UniProt P11712); assay: Inhibition of CYP2C9 in human liver microsomes in presence of NADPH; type: ADME
Cytochrome P450 1A2 = Cytochrome P450 1A2 (Homo sapiens, UniProt P05177); assay: Inhibition of CYP1A2 in human liver microsomes in presence of NADPH; type: ADME
[20] = Half life in Sprague-Dawley rat at 0.2 mg/kg, iv; type: ADME, organism-based; conditions: in vivo
[21] = Plasma clearance in Sprague-Dawley rat at 0.2 mg/kg, iv; type: ADME, organism-based
[22] = Ratio of drug level in brain to plasma of rat at 0.2 mg/kg measured at 15 mins post dose; type: ADME, organism-based; conditions: 0.25 h
[23] = Ratio of drug level in brain to plasma of CD-1 mouse at 30 mg/kg measured at 30 mins post dose; type: ADME, organism-based; conditions: 0.5 h
[24] = Unbound brain to plasma ratio in rat at 0.2 mg/kg measured at 15 mins post dose; type: ADME, organism-based; conditions: 0.25 h
[25] = Unbound brain to plasma ratio in CD-1 mouse at 30 mg/kg, ip measured at 30 mins post dose; type: ADME, organism-based; conditions: 0.5 h
[26] = Tmax in Sprague-Dawley rat at 10 mg/kg, ip; type: ADME, organism-based; conditions: in vivo
[27] = Cmax in Sprague-Dawley rat at 10 mg/kg, ip; type: ADME, organism-based; set-up: dose 10 mg/kg, route intraperitoneal; conditions: in vivo
[28] = AUC in Sprague-Dawley rat at 10 mg/kg, ip; type: ADME, organism-based; conditions: in vivo
[29] = Tmax in CD-1 mouse at 30 mg/kg, ip; type: ADME, organism-based; conditions: in vivo
[30] = Cmax in CD-1 mouse at 30 mg/kg, ip; type: ADME, organism-based; set-up: dose 30 mg/kg, route intraperitoneal; conditions: in vivo
[31] = AUC in CD-1 mouse at 30 mg/kg, ip; type: ADME, organism-based; conditions: in vivo
[32] = biological target: Metabotropic glutamate receptor 2 (Rattus norvegicus) (UniProt P31421); assay: Activity at rat mGluR2 expressed in HEK293-GIRK cells assessed as effect on glutamate-induced response by thallium flux assay; type: cell-based
[33] = biological target: Metabotropic glutamate receptor 3 (Rattus norvegicus) (UniProt P31422); assay: Activity at rat mGluR3 expressed in HEK293-GIRK cells assessed as effect on glutamate-induced response by thallium flux assay; type: cell-based
[34] = biological target: Metabotropic glutamate receptor 4 (Rattus norvegicus) (UniProt P31423); assay: Activity at rat mGluR4 expressed in HEK293-GIRK cells assessed as effect on glutamate-induced response by thallium flux assay; type: cell-based
[35] = biological target: Metabotropic glutamate receptor 6 (Rattus norvegicus) (UniProt P35349); assay: Activity at rat mGluR6 expressed in HEK293-GIRK cells assessed as effect on glutamate-induced response by thallium flux assay; type: cell-based
[36] = biological target: Metabotropic glutamate receptor 7 (Rattus norvegicus) (UniProt P35400); assay: Activity at rat mGluR7 expressed in HEK293-GIRK cells assessed as effect on glutamate-induced response by thallium flux assay; type: cell-based
[37] = biological target: Metabotropic glutamate receptor 8 (Rattus norvegicus) (UniProt P70579); assay: Activity at rat mGluR8 expressed in HEK293-GIRK cells assessed as effect on glutamate-induced response by thallium flux assay; type: cell-based
Sequence of Metabotropic glutamate receptor 8 (Rattus norvegicus) (P70579 whole entry): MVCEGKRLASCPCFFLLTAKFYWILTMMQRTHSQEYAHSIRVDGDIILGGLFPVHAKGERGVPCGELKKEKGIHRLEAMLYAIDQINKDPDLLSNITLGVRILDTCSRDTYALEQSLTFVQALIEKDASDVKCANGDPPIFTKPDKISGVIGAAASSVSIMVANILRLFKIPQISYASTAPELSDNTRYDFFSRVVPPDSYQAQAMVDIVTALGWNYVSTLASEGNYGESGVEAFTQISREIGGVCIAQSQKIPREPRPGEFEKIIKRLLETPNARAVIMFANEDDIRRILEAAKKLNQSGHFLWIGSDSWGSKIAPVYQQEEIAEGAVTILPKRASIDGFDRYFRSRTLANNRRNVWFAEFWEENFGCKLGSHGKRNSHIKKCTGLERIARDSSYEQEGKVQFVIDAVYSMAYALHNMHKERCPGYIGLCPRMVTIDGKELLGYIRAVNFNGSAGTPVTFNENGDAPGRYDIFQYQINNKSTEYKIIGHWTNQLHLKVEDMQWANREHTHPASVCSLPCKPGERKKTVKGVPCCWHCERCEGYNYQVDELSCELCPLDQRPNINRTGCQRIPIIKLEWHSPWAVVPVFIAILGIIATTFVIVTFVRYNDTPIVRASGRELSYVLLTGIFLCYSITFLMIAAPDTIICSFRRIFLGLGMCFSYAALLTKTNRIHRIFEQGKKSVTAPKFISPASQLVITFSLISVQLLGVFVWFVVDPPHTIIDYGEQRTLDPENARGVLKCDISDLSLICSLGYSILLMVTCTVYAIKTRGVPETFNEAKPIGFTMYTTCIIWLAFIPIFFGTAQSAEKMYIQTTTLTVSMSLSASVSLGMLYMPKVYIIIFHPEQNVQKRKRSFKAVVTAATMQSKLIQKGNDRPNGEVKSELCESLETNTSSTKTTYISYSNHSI

[38] = biological target: Adenosine receptor A3 (Homo sapiens) (UniProt P0DMS8); assay: Inhibition of recombinant human Adenosine A3 receptor expressed in CHOK1 cells at 10 uM by radioligand binding assay; conditions: CHO-K1

`CC1(C)CCC(Nc2ncnc3c2nn2ccccc32)CC1` gave an IC50 [1] of 0.069 µM, a %max [2] of 2.9% and an IC50 [3] of 0.129 µM. For the same compound, the %max [4] was 1.6%, the inhibition [5] was 92% and the inhibition [6] was 94%. For the same compound, the inhibition [7] was 65%, the inhibition [8] was 65% and the inhibition (Rattus norvegicus) was 55%. The inhibition [9] was 65.3%, the inhibition [10] was 85.1% and the inhibition [11] was 75.9%. It also gave an inhibition [12] of 50.4%, an inhibition [13] of 52.9% and an inhibition [14] of 79.4%. The inhibition [15] was 75.2%, the inhibition [16] was 58.8% and the Fu [17] was 0.025. The Fu (Plasma) was 0.037, the fraction unbound [18] was 0.008 and the fraction unbound [19] was 0.01. For the same compound, the IC50 (Cytochrome P450 3A4) was > 30 µM, the IC50 (Cytochrome P450 2D6) was > 30 µM and the IC50 (Cytochrome P450 2C9) was > 30 µM. For the same compound, the IC50 (Cytochrome P450 1A2) was 9.6 µM, the half-life [20] was 34 min and the clearance [21] was 98 mL/min/kg. The Kp [22] was 5.3, the Kp [23] was 3.3 and the “K(p,uu,brain)” value [24] was 1.1. For the same compound, the “K(p,uu,brain)” value [25] was 1.3, the Tmax [26] was 15 min and the Cmax [27] was 2300 nM. The AUC [28] was 3.23 µM·h, the Tmax [29] was 20 min and the Cmax [30] was 3000 nM. The AUC [31] was 2.86 µM·h, the Activity [32] was “inactive” and the Activity [33] was “inactive”. The Activity [34] was “inactive”, the Activity [35] was “inactive” and the Activity [36] was “inactive”. The Activity [37] was “inactive” and the inhibition [38] was 63%.
